# Results from a melting point compilation (Tetko et al.; mined from patent text by program, amines drawn as free bases though some values may be those of a salt).
row,SMILES,melting point [°C]
1,O=C(Oc1ccccc1)N1CCC2(CC1)SC(c1ccc(Cl)cc1)c1ccccc12 (stereo unspecified),211 to 212
2,CC(=O)c1c(CBr)n(S(=O)(=O)c2ccccc2)c2ccc(Cl)cc12,155
3,COCc1cc2c(-c3ccc(C(F)(F)F)n(C)c3=O)c(F)cc(Cl)c2o1,136 to 137
4,OC1CC=CCC1N1CCN(C2CC=CCC2O)CC1 (stereo unspecified),207 to 209
5,O=C1C2C[C@@H](OCc3ccccc3)CN2C(=O)N1c1ccc([N+](=O)[O-])c2ccccc12 (stereo partly specified),120 to 122
6,C=C(CN1c2ccccc2Sc2ccc(Cl)cc21)c1ccc(C(=O)Nc2ccccc2N)cc1,126 to 128
7,N#Cc1ccc2cc(CCCc3cc4ccc(C#N)cc4o3)oc2c1,199 to 201
8,CC(C)n1c(C=O)c(-c2ccc(F)cc2)c(-c2ccc(F)cc2)c1C(=O)O,228 to 230
9,Cn1ncnc1COc1nn2c(-c3ccccc3F)nncc2c1-c1cc(F)ccc1F,164 to 165
10,O=C1N(Cc2ccc(N3CCOCC3)cn2)c2ccccc2C12COc1cc3c(cc12)OCCO3 (stereo unspecified),204 to 206
11,COc1ccc(-c2nc3cc(C(C(C)C)n4ccnc4)ccc3[nH]c2=O)cc1OC (stereo unspecified),243
12,C1=C(c2cccc3[nH]ccc23)CN(CCc2ccccc2)CC1,205
13,O=S(=O)(Nc1cccc(CCOCc2ccc(-c3ccc(Cl)c(Cl)c3)cc2)c1)C(F)(F)F,74 to 75
14,NC(=O)c1ccc2c(c1)CCCN2CCN1CC=C(c2c[nH]c3cc(F)ccc23)CC1,130 to 133
15,CN(C(=O)c1cn2ccc(-c3ccc(Cl)cc3)cc2n1)C(Cc1ccc(OCc2ccccc2)cc1)C(=O)O (stereo unspecified),222
16,Nc1n[nH]cc1S(=O)(=O)c1ccccc1,159 to 161
17,Cc1ccccc1-c1cc(C(F)(F)F)n2cnc(C#N)c2n1,151
18,O=C1c2ccccc2C2(Cc3ccccc3)NCCN12 (stereo unspecified),115 to 117
19,CCOCc1nc2c(N)nc3cc(OCc4ccccc4)ccc3c2n1CC(C)C,201 to 203
20,COc1cc(Nc2nc(N3CCOCC3)nc(-n3c(C(F)F)nc4c(OC)cccc43)n2)ncn1,256 to 259
21,C=CCN(C)c1nc(-c2ccc(OC)cc2)nc2sc(C#N)c(C)c12,126 to 128
22,CSc1cnc2cc(-c3ccccc3)sc2c1O,> 325
23,CCCC=Cc1c(C(C)C)nc(C(C)C)c(CO)c1-c1ccc(C)cc1,72 to 75

row,SMILES,melting point [°C]
1,NC(Cc1ccccc1)C(O)C1=NCCS1 (mixture of isomers),82.3 to 90
2,O=c1nc(NCN2CCOCC2)c(F)cn1CN1CCOCC1,156 to 158
3,O=C(CC(=O)c1ccc(Br)cc1)c1ccc(Br)cc1,193 to 195
4,CC1=Nc2ccccc2CC(c2cccs2)N1C (stereo unspecified),106 to 108
5,Cc1nc(-c2cc(Cl)ccc2Cl)n2c1nnc1ccc(N3CCCCC3)cc12,158 to 160
6,NS(=O)(=O)c1ccc(-c2cccc(-c3nc(-c4ccc(C(F)(F)F)cc4)cc(C(F)(F)F)n3)c2)s1,204
7,CC(O)(CCBr)c1ccc(-c2cccc(F)c2)cc1 (stereo unspecified),72 to 74
8,O=Cc1ccc2c(c1)COC2=O,160
9,N#Cc1cccc(-n2ccc3ccccc32)c1,33 to 36
10,CC(=O)OC(c1ccc(OCc2ccccc2)cc1)C(F)(F)F (stereo unspecified),85 to 87
11,CC(c1cc2ccccc2o1)N(O)C(N)=O (stereo unspecified),147 to 150
12,Nc1ccc(Cc2ccc(C3(c4ccc(Cc5ccc(N)cc5)cc4)CCCCC3)cc2)cc1,154 to 156
13,Nc1nc2ccc(OCc3c(F)cccc3F)cc2s1,178
14,Fc1cc(C(F)(F)F)ccc1/C=C/c1nc(COc2ccc(-c3nc(Cn4ccnc4)cs3)cc2)co1,133 to 135
15,COCOc1c(OC)cc(C(S)CS)cc1OC (stereo unspecified),84 to 85
16,CC1CN(c2nnc(N3CC(C)OC(C)C3)c3cc(-c4ccccc4)ncc23)CC(C)O1 (stereo unspecified),248 to 250
17,O=C1Cc2c(Cl)cccc2Sc2ccccc21,122 to 125
18,FC(F)C(F)(F)Oc1cccc(Nc2nccc(-c3c[nH]c4ccccc34)n2)c1,140 to 142
19,CN(C=O)c1ccccc1C(=O)COC(=O)c1ccccc1,100 to 102
20,Cc1c(C)c(C=O)c2ncccc2c1C,162
21,CNc1ccc2[nH]ccc2c1,113 to 114
22,Cn1cc(-c2ccccc2)nc1CO,191 to 192
23,Cc1ccc(C=Cc2ccccc2C(=O)O)cc1,80 to 82

# Other lines, results leading:
row,melting point [°C],SMILES
1,247 to 250,CCC(=O)N1CCN(c2n[nH]c3ncnc(Nc4cccc(Cl)c4)c23)CC1
2,138 to 139,CCN(CC)CC1CCCCN1CCNC(=O)N1c2cccnc2NC(=O)c2c1c(C)nn2C (stereo unspecified)
3,105 to 108,CCOc1ccc2c(c1)C(=O)N(CCCCBr)S2(=O)=O
4,190 to 191,CCCn1nc2c(N)nc3ccccc3c2c1CC(C)(C)NC(=O)NC(C)C
5,112 to 116,CC(C)(F)[C@H]1C(=O)N[C@@H]1CC(=O)OCc1ccccc1 (racemic)
6,171 to 173,c1cncc(-c2cc(C3CCN(CCc4cccc5ccccc45)CC3)n[nH]2)c1
7,76 to 78,CCCNC(=O)ON(C(=O)NCCC)C(=O)C1CC1
8,218 to 220,O=C(Nc1nc2cnccc2s1)N1CCCC1
9,205 to 207,O=C(O)CNCCOc1cccc(CCNS(=O)(=O)c2ccc(Cl)cc2)c1
10,107 to 109,CCCCOc1c(CNC(=O)OC(C)(C)C)n(CC(C)C)c(=O)c2ccc(-c3nc(C)c(C(=O)O)s3)cc12
11,218 to 219,CC(C)CCN1C(=O)C(N)C(=O)N(CC23CC4CC(CC(C4)C2)C3)c2ccccc21 (stereo unspecified)
12,58 to 59,CC(C)C[C@H](NC(=O)OC(C)(C)C)[C@H](O)CO
13,98 to 100,CCOC(=O)Cn1nnnc1S(=O)(=O)c1ccc(C)cc1
14,111,COC(=O)CCCC(=O)c1ccc(OC)c(I)n1
15,95,CCCCCCNC(=O)[C@@H]1CCC(=O)N1
16,> 270,NCc1ccn(-c2cc3c(cc2[N+](=O)[O-])[nH]c(=O)c(=O)n3CC(=O)O)c1
17,136 to 138,COc1cc(OC)cc(S(=O)(=O)n2c(CCCC(=O)O)cc3nc(Cl)ccc32)c1
18,167 to 170,CC(C)OC(=O)N1CCC(c2nc3cc(-c4ccc(C=O)cc4)ccc3o2)CC1
19,48 to 50,COc1cc2c(cc1C(C)=O)CCCC2C (stereo unspecified)
20,90 to 95.5,CS(=O)(=O)Nc1cccc(OCCCN2CCC(OC(c3ccccc3)c3ccccc3)CC2)c1
21,114 to 115,CCN(CC)c1ccc(NC(C)=O)c(C)c1
22,100,Cn1c(=O)c2c(ncn2CC(O)CN2CCN(C(=O)c3ccco3)CC2)n(C)c1=O (stereo unspecified)
23,92 to 96,CC(C(=O)O)c1ccc(OCCNC(=O)C2Cc3ccccc3N2S(=O)(=O)c2ccc(-c3cccc(C(F)(F)F)c3)cc2)cc1 (stereo unspecified)
24,164 to 166,Cc1cc2nc(S(=O)(=O)CC(F)(F)F)[nH]c2cc1F
25,189 to 190,O=C1CCC2=C(CCc3cccc(Br)c32)N1
26,151 to 153,CC1CC(c2ccc(OCC(=O)O)c(Cl)c2Cl)=CC(=O)C1C (stereo unspecified)
27,142 to 144,COC(=O)c1c(C(=O)OC)c(-c2ccc(F)c(F)c2)n2c1Cc1ccccc1C2
28,173,CC1(C)CCCN(C(=O)[C@H]2C[C@H](C(=O)O)[C@@H](c3ccccc3F)N2C(=O)CNC(=O)Nc2cccc(CC(=O)O)c2)C1 (racemic)

row,melting point [°C],SMILES
1,125 to 127,CC(=O)c1ccc2c(c1)N(C(=O)OC(C)(C)C)CCC2
2,158 to 160,CCNc1nc(N2CCN(Cc3ccccc3)CC2)ncc1C(=O)O
3,104 to 106,CCCCC(=O)N(Cc1ccc(-c2ccccc2-c2nnn[nH]2)cc1Br)[C@H](C(=O)OCc1ccccc1)C(C)C
4,195 to 198,CNC(=O)Nc1sc2nc(C)ccc2c1C(=O)N1CCC(N2CCCC3(CCN(C(C)C)C3=O)C2)CC1 (stereo unspecified)
5,172 to 174,CCc1cn(C2CC(O)C(CO)O2)c(=O)nc1NC(=O)c1ccccc1 (stereo unspecified)
6,62 to 66,CCOC(=O)C(C(=O)OCC)C(=O)C(C)Oc1cc(Cl)c(Cl)cc1Cl (stereo unspecified)
7,192,CC(=O)NCCc1c(-c2ccccc2)oc2ccc3c(c12)OCCO3
8,122 to 124,CCN(CC)c1ccc2c(c1)CC(=O)N2
9,141 to 143,O=C1C[C@H](O)[C@H](CC2CCCCC2)N1
10,101,COc1ccc(S(=O)(=O)C2(C(=O)O)CCN(CCCOc3ccccc3)CC2)cc1
11,148 to 149,CC(=O)N1CCC(CCC(=O)c2ccc3c(c2)CCN3C(C)=O)CC1
12,122 to 124,Cc1ccc(COC(=O)N2CCC[C@H]2C(=O)N[C@H](CO)C(C)C)cc1
13,146 to 149,COc1ccc2c(c1)CCC1C2CCC2(C)C(=O)C(Br)CC12 (stereo unspecified)
14,97 to 98,CCCCCCCCCCCCCC(=O)N[C@H]1CCCNC(=O)C1
15,128 to 129,COC(=O)N1Cc2c(O)noc2C(C)C1 (racemic)
16,100 to 103,COC(=O)c1ccc(N(C)C)cn1
17,172 to 175,CCc1oc2ccccc2c1C(=O)c1ccc(OCC(=O)O)cc1
18,181 to 183,CCOC(=O)c1ncn(-c2nncs2)c1N
19,78.8 to 79.5,COC(=O)[C@H](Cc1ccc(OS(=O)(=O)c2ccc(C)cc2)cc1)NC(=O)OC(C)(C)C
20,134 to 136,CS(=O)(=O)Nc1ccc(CCOS(C)(=O)=O)cc1
21,179,CS(=O)(=O)c1cc(C(=O)O)c(NCc2ccccc2)cc1Cl
22,138 to 140,CN(C)CCCN1C(=O)C(NC(=O)Nc2ccccc2)C(=O)N(CC23CC4CC(CC(C4)C2)C3)c2ccccc21 (stereo unspecified)
23,61 to 75,O=C1NC2CCC(=O)N2[C@H]1CO (stereo partly specified)
24,87 to 90,COC(=O)C(O)CC1CCC(=O)N1 (stereo unspecified)
25,231 to 233,O=C(c1ccc([N+](=O)[O-])cc1)N1CCCCc2ncccc21
26,82 to 84,CCCCCCCCOc1cc(-c2ccccc2)c(OCC(=O)O)c(-c2ccccc2)c1
27,116 to 117,CCCc1ccn(-c2ccc(S(C)(=O)=O)cc2)c1-c1ccc(F)cc1
